“Also recorded” adds a separate entry of the source.

Assay [1] deals with isolated perfused guinea pig heart. In words: Ischemia-reperfusion-induced myocardial stunning in isolated perfused guinea pig heart (Langendorff). Conditions: for myocardial contractile force during ischemia-reperfusion / tolerance of ischemia versus buffer-treated hearts: SS-02 100 nM or SS-31 1 nM perfused 30 min; for myocardial contractile force during ischemia-reperfusion: 30-min global ischemia, then reperfusion (FIG. 2). Here is the method: Guinea pig hearts were rapidly isolated, and the aorta was cannulated in situ and perfused in a retrograde fashion with an oxygenated Krebs-Henseleit solution (pH 7.4) at 34° C. The heart was then excised, mounted on a modified Langendorff perfusion apparatus, and perfused at constant pressure (40 cm H20). Contractile force was measured with a small hook inserted into the apex of the left ventricle and the silk ligature tightly connected to a force-displacement transducer. Coronary flow was measured by timed collection of pulmonary artery effluent.
Hearts were perfused with buffer, 2′,6′-Dmt-D-Arg-PheLys-NH2 (SS-02) (100 nM) or D-Arg-Dmt-Lys-Phe-NH2 (SS-31) (1 nM) for 30 min and then subjected to 30 min of global ischemia Reperfusion was carried out with the same solution used prior to ischemia.

A further assay concerns isolated mitochondria. Nature of the assay: Mitochondrial permeability transition (MPT) induced by Ca2+ in isolated mitochondria. Conditions: pretreatment of isolated mitochondria with SS-31 10 μM (FIG. 1A). Here is the method:
(§1) FIGS. 1A-1C depict that D-Arg-Dmt-Lys-Phe-NH2 (SS-31; MTP-131) inhibits mitochondrial swelling and cytochrome c release. […] Gray line, buffer; red line, SS-31. […] Swelling was measured by light scattering measured at 570 nm. FIG. 1 C depicts the comparison of SS-02 and SS-31 with cyclosporine (CsA) in inhibiting mitochondrial swelling and cytochrome c release induced by Ca2+. The amount of cytochrome c released was expressed as percent of total cytochrome c in mitochondria. Data are presented as mean±s.e., n=3.
(§2) MPT pore opening results in mitochondrial swelling. We examined the effects of (SS-31) on mitochondrial swelling, which was measured using light scattering monitored at 570 nm.

For assay [2], the system named is mitochondria. Nature of the assay: Mitochondrial swelling induced by Ca2+, light scattering at 570 nm. Conditions: pretreatment with SS-31 50 μM, light scattering at 570 nm (FIG. 1B). Here is the method:
as §1, §2

For assay [3], the system named is mitochondria. Nature of the assay: Cytochrome c release from mitochondria induced by Ca2+. Conditions: FIG. 1C. Here is the method:
as §1, §2

Where [4] appears, read: 30 min global ischemia, then reperfusion.

On to 2′,6′-Dmt-D-Arg-PheLys-NH2 [SS-02], for which the “myocardial contractile force during ischemia-reperfusion” value in assay [1] is “protects myocardial contractile force”. Further, the “tolerance of ischemia versus buffer-treated hearts” value in assay [1] (setting [4]) is reported as “tolerated ischemia much better than buffer-treated hearts”.
With `Cc1cc(O)cc(C)c1C[C@H](CC(=O)[C@H](N)CCCNC(=N)N)C(=O)N[C@@H](CCCCN)C(=O)N[C@@H](Cc1ccccc1)C(N)=O` [SS-31, D-Arg-Dmt-Lys-Phe-NH2], the “onset of MPT induced by Ca2+” value in the assay on isolated mitochondria is reported as “has the same ability to protect against MPT; also recorded: prevents onset of MPT”. The “mitochondrial swelling induced by Ca2+” value in the assay with mitochondria [2] is “has the same ability to protect against; also recorded: inhibited mitochondrial swelling”. In the assay on mitochondria [3], the “cytochrome c release induced by Ca2+” value is listed as “has the same ability to protect against”. The “myocardial contractile force during ischemia-reperfusion” value in assay [1] was “protects myocardial contractile force”. The “tolerance of ischemia versus buffer-treated hearts” value in assay [1] (setting [4]) is given as “tolerated ischemia much better than buffer-treated hearts”. Besides, in assay [1] (SS-31 1 nM, 30 min global ischemia, then reperfusion), the “inhibition of cardiac stunning” value is “complete inhibition of cardiac stunning”. Further, the heart rate result in assay [1] (SS-31 1 nM, ischemia-reperfusion) is listed as “no decrease in heart rate”. Also, the “coronary flow during reperfusion” value in assay [1] (SS-31 1 nM, timed collection of pulmonary artery effluent) is “well-sustained throughout reperfusion”.

The record behind these values is US20230227499A1, “PRODRUGS OF MITOCHONDRIA-TARGETING OLIGOPEPTIDES” (Stealth Biotherapeutics Inc., priority 2020, published 2023).
